# Experiments:
# [1] = molecular target: T1, rCL-11 (recombinant collectin-11, CL-11, CL-K1) (Homo sapiens, UniProt Q9BWP8); assay: co-precipitation with D-mannose-agarose (western blot) and solid-phase binding to coated D-mannose-BSA; details: Ca2+ required (no binding in EDTA or Mg-EGTA); D-mannose presented as immobilised agarose or BSA conjugate; room temperature
# T1 construct: gene COLEC11; no tag stated; homomeric disulfide-linked oligomers of trimers, monomer ~34 kDa reduced
# [2] = molecular target: T1, rCL-11 (recombinant collectin-11, CL-11, CL-K1); assay: solid-phase competition ELISA, inhibition of rCL-11 binding to coated mannan; details: Ca2+ (TBS-Tw-Ca, 2.5 mM CaCl2), rCL-11 1 ug/ml, mannan-coated plate, room temperature
# T1 sequence (Q9BWP8 26-271): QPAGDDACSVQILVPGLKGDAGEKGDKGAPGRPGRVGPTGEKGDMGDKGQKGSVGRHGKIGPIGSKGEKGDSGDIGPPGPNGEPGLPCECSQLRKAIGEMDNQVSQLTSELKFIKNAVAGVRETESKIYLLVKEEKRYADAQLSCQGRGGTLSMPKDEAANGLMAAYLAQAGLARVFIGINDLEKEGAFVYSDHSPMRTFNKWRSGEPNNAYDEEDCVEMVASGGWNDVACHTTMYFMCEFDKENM
IC50 [2] [mM],Compound,co-precipitation with D-mannose-agarose (western blot) and solid-phase binding t [1]
,OC[C@H]1OC(O)[C@@H](O)[C@@H](O)[C@@H]1O (stereo partly drawn) [D-mannose],bound to D-mannose and mannan in the presence of calcium
36.5,C[C@@H]1OC(O)[C@@H](O)[C@H](O)[C@@H]1O (stereo partly drawn) [L-fucose],

# Reference: paper PMC6172411, “Development of a Quantitative Assay for the Characterization of Human Collectin-11 (CL-11, CL-K1)” (Frontiers in Immunology, 2018)
